# Measurements as given in US20010053796A1, “Delta-aminolevulinic acid for prevention and treatment of infection microorganisms and parasite” (priority 2000, published 2001).
# Columns and labels:
# Streptococcus sp. [1] = assay: Treatment effect of infected fry by digestion in breeding water; assay type: in vivo, Sebastes schlegeli; conditions: 50 fish
# Protocol: (§1) To be used as experimental fish in this example, fry of Bastardhalibut and Sebastes schlegeli (mean body weight 2 g), 50 per each breeding tank, were preliminary-bred for 1 week and stabilized. […] The artificial infection methods were carried out by the digestion method. Pathogenic organisms were applied into fish tanks and digested in seawater, wherein the concentration of organisms has adjusted to 10^4 CFU/mL for an hour, and infected. Treatment conditions are as follows. After artificial infection. Infected fishes were moved to fish tanks and kept in the infection period for 3 days. On the fourth day of infection, 0.1, 1.0, 5 and 10 ppm δ-aminolevulinic acid were introduced to use as breeding water. Fish was bred in aerobic condition for 1˜24 hours without exchanging water and then, bred for 2 weeks after exchanging with clean seawater. Then, they were monitored to check for the mortality of fish according to infection. In the control groups, after each bacteria were identically introduced through the digestion method, mortality of Bastardhalibut and Sebastes schlegeli according to bacteria infection was identified while breeding with non-treated condition of δ-aminolevulinic acid. As a result of this experiment, δ-aminolevulinic acid-treated groups have shown high viability in both Bastardhalibut (Table 12˜Table 15) and Sebastes schlegeli (Table 16˜Table 19).
# Edwardsiella tarda [2] = assay: as above; assay type: in vivo, Sebastes schlegeli; conditions: 50 fish
# Protocol: as §1
# Vibrio anguillarum = assay: as above; assay type: in vivo, Sebastes schlegeli; conditions: 50 fish
# Protocol: as §1
# Staphylococcus sp. [3] = assay: as above; assay type: in vivo, Sebastes schlegeli; conditions: 50 fish
# Protocol: as §1
# Staphylococcus epidermis [4] = assay: as above; assay type: in vivo, Sebastes schlegeli; conditions: 50 fish
# Protocol: as §1
# Pseudomonas sp. = assay: as above; assay type: in vivo, Sebastes schlegeli; conditions: 50 fish
# Protocol: as §1
# Streptococcus sp. [5] = assay: Treatment effect of infected fry by oral administration in feed; assay type: in vivo, Bastardhalibut; conditions: 50 fish
# Protocol: (§2) In this example, fry of Bastardhalibut and Sebastes schlegeli (mean body weight 2 g), 50 per each breeding tank, were preliminary-bred for 1 week and stabilized. […] The artificial infection methods were carried out through the digestion method. Pathogenic organisms were applied into fish tanks and introduced into seawater for an hour, wherein the concentration of organisms adjusted to 10^4 CFU/mL. Treatment conditions are as follows; after artificial infection, infected fish were moved to fish tanks and kept in the infection period for 3 days. […] The fish were bred for 2 weeks after exchanging with clean seawater and the mortality of fish according to infection was monitored. In the control groups, after each bacteria were identically infected through digestion method, mortality of Bastardhalibut and Sebastes schlegeli according to bacteria infection was identified while breeding with marketing assorted feed without δ-aminolevulinic acid. As a result of this experiment, δ-aminolevulinic acid-treated groups have shown high viability in both Bastardhalibut (Table 20˜Table 23) and Sebastes schlegeli (Table 24˜Table 27).
# Edwardsiella tarda [6] = assay: as above; assay type: in vivo, Bastardhalibut; conditions: 50 fish
# Protocol: as §2
# Staphylococcus sp. [7] = assay: as above; assay type: in vivo, Bastardhalibut; conditions: 50 fish
# Protocol: as §2
# Staphylococcus epidermis [8] = assay: as above; assay type: in vivo, Bastardhalibut; conditions: 50 fish
# Protocol: as §2
# [9] = tested on: White Spot Syndrome Virus (WSSV); assay: Treatment for WSSV infected shrimp; assay type: in vivo, Penaeus Chinesis
# Protocol: In this experiment, after injection of the viral homogenate aforementioned in EXPERIMENT 1, treatment group was immersed respectively in 0.01˜10 ppm of ALA for 1.5 hour for 3 days.
# Scutica = assay: Application to Scutica-infected seedling nursery; assay type: in vivo, flatfish; conditions: 30 ppm formalin day 1, then 1 ppm for 2 hrs on days 2 and 3
# Protocol: Seedling was produced in flatfish seedling nursery and flatfish fry in seedling nursery, where marketing had stopped due to the infection of Scutica in a marketing stage (the length 5˜6 cm). They were treated with δ-aminolevulinic acid made by the inventors. Seriously infected fish were collected from seedling nursery and contained in water tanks and treated. On the first day, the fish were treated with 30 ppm formalin and, on the second and third day, were treated δ-aminolevulinic acid at concentration of 1 ppm for 2 hrs. […] Cultivation in a water tank of a fish farm where the ozone treatment system, which can control pathogenic organisms in seawater for cultivating, was applied has shown possibility of normal cultivation.
# [10] = digestion 0.1 ppm from 4th day of infection, Sebastes schlegeli fry
# [11] = digestion 1.0 ppm from 4th day of infection, Sebastes schlegeli fry
# [12] = digestion 5.0 ppm from 4th day of infection, in Sebastes schlegeli
# [13] = digestion 10 ppm from 4th day of infection, Sebastes schlegeli fry
# [14] = digestion 5.0 ppm from 4th day of infection
# [15] = digestion 10 ppm from 4th day of infection
# [16] = feed 0.1 ppm from 4th day of infection
# [17] = feed 1.0 ppm from 4th day of infection
# [18] = feed 50 ppm from 4th day of infection
# [19] = feed 100 ppm from 4th day of infection
smiles,measurement,setting,value
NCC(=O)CCC(=O)O [δ-aminolevulinic acid],Viability,Streptococcus sp. [1]; [10],50%
same,Viability,Streptococcus sp. [1]; [11],76%
same,Viability,Streptococcus sp. [1]; [12],86%
same,Viability,Streptococcus sp. [1]; [13],86%
same,Viability,Edwardsiella tarda [2]; [10],60%
same,Viability,Edwardsiella tarda [2]; [11],80%
same,Viability,Edwardsiella tarda [2]; [12],84%
same,Viability,Edwardsiella tarda [2]; [13],94%
same,Viability,Vibrio anguillarum; [10],50%
same,Viability,Vibrio anguillarum; [11],74%
same,Viability,Vibrio anguillarum; [14],84%
same,Viability,Vibrio anguillarum; [13],86%
same,Viability,Staphylococcus sp. [3]; [10],50%
same,Viability,Staphylococcus sp. [3]; [11],76%
same,Viability,Staphylococcus sp. [3]; [14],84%
same,Viability,Staphylococcus sp. [3]; [13],86%
same,Viability,Staphylococcus epidermis [4]; [10],40%
same,Viability,Staphylococcus epidermis [4]; [11],70%
same,Viability,Staphylococcus epidermis [4]; [12],66%
same,Viability,Staphylococcus epidermis [4]; [15],84%
same,Viability,Pseudomonas sp.; [10],40%
same,Viability,Pseudomonas sp.; [11],76%
same,Viability,Pseudomonas sp.; [12],86%
same,Viability,Pseudomonas sp.; [15],84%
same,Viability,Streptococcus sp. [5]; [16],36%
same,Viability,Streptococcus sp. [5]; [17],74%
same,Viability,Streptococcus sp. [5]; [18],90%
same,Viability,Streptococcus sp. [5]; [19],86%
same,Viability,Edwardsiella tarda [6]; [16],42%
same,Viability,Edwardsiella tarda [6]; [17],68%
same,Viability,Edwardsiella tarda [6]; [18],92%
same,Viability,Edwardsiella tarda [6]; [19],82%
same,Viability,Staphylococcus sp. [7]; [16],42%
same,Viability,Staphylococcus sp. [7]; [17],72%
same,Viability,Staphylococcus sp. [7]; [18],92%
same,Viability,Staphylococcus sp. [7]; [19],86%
same,Viability,Staphylococcus epidermis [8]; [16],42%
same,Viability,Staphylococcus epidermis [8]; [17],68%
same,Viability,Staphylococcus epidermis [8]; [18],94%
same,Viability,Staphylococcus epidermis [8]; [19],86%
same,Cumulative mortality,"[9]; 0.01 ppm, after injection for 3 weeks",100%
same,Mortality after injection for 3 weeks,"[9]; 0.01 ppm, day 1, 50 shrimp",0
same,Mortality after injection for 3 weeks,"[9]; 0.01 ppm, day 2, 50 shrimp",0
same,Mortality after injection for 3 weeks,"[9]; 0.01 ppm, day 3, 50 shrimp",15
same,Mortality after injection for 3 weeks,"[9]; 0.01 ppm, day 4, 50 shrimp",20
same,Mortality after injection for 3 weeks,"[9]; 0.01 ppm, day 5, 50 shrimp",12
same,Mortality after injection for 3 weeks,"[9]; 0.01 ppm, day 6, 50 shrimp",3
same,Cumulative mortality,"[9]; 0.1 ppm, after injection for 3 weeks",18%
same,Mortality after injection for 3 weeks,"[9]; 0.1 ppm, day 1, 50 shrimp",0
same,Mortality after injection for 3 weeks,"[9]; 0.1 ppm, day 2, 50 shrimp",0
same,Mortality after injection for 3 weeks,"[9]; 0.1 ppm, day 3, 50 shrimp",4
same,Mortality after injection for 3 weeks,"[9]; 0.1 ppm, day 4, 50 shrimp",3
same,Mortality after injection for 3 weeks,"[9]; 0.1 ppm, day 5, 50 shrimp",2
same,Mortality after injection for 3 weeks,"[9]; 0.1 ppm, day 6, 50 shrimp",0
same,Mortality after injection for 3 weeks,"[9]; 0.1 ppm, day 7, 50 shrimp",0
same,Mortality after injection for 3 weeks,"[9]; 0.1 ppm, day 21, 50 shrimp",0
same,Cumulative mortality,"[9]; 1.0 ppm, after injection for 3 weeks",10%
same,Mortality after injection for 3 weeks,"[9]; 1.0 ppm, day 1, 50 shrimp",0
same,Mortality after injection for 3 weeks,"[9]; 1.0 ppm, day 2, 50 shrimp",0
same,Mortality after injection for 3 weeks,"[9]; 1.0 ppm, day 3, 50 shrimp",3
same,Mortality after injection for 3 weeks,"[9]; 1.0 ppm, day 4, 50 shrimp",2
same,Mortality after injection for 3 weeks,"[9]; 1.0 ppm, day 5, 50 shrimp",0
same,Mortality after injection for 3 weeks,"[9]; 1.0 ppm, day 6, 50 shrimp",0
same,Mortality after injection for 3 weeks,"[9]; 1.0 ppm, day 7, 50 shrimp",0
same,Mortality after injection for 3 weeks,"[9]; 1.0 ppm, day 21, 50 shrimp",0
same,Cumulative mortality,"[9]; 10 ppm, after injection for 3 weeks",8%
same,Mortality after injection for 3 weeks,"[9]; 10 ppm, day 1, 50 shrimp",0
same,Mortality after injection for 3 weeks,"[9]; 10 ppm, day 2, 50 shrimp",0
same,Mortality after injection for 3 weeks,"[9]; 10 ppm, day 3, 50 shrimp",3
same,Mortality after injection for 3 weeks,"[9]; 10 ppm, day 4, 50 shrimp",1
same,Mortality after injection for 3 weeks,"[9]; 10 ppm, day 5, 50 shrimp",0
same,Mortality after injection for 3 weeks,"[9]; 10 ppm, day 6, 50 shrimp",0
same,Mortality after injection for 3 weeks,"[9]; 10 ppm, day 7, 50 shrimp",0
same,Mortality after injection for 3 weeks,"[9]; 10 ppm, day 21, 50 shrimp",0
same,Cumulative mortality,"[9]; immersion 1.0 ppm, 1.5 hour for 3 days after virus injection, 3 weeks",10%
same,Cumulative mortality,"[9]; immersion 10 ppm, 1.5 hour for 3 days after virus injection, 3 weeks",8%
same,examination of infection through sampling of fish body,Scutica; after 2 weeks of cultivation,no infection by Scutica
same,vitality of treated fish,Scutica; after 1 day of treatment,highly improved
